We go through two molecules from ChEMBL document CHEMBL1126778, “Adenosine A1 antagonists. 3. Structure-activity relationships on amelioration against scopolamine- or N6-((R)-phenylisopropyl)adenosine-induced cognitive disturbance” (J Med Chem, 1993).

In assay [1] the test system is Rattus norvegicus. The assay is described as follows: Acquisition time in Scopolamine induced avoidance test (performed in rat) for antagonistic activity after p.o. administration of 5 mg/kg. In kind it is functional. The conditions noted are these: route oral.
Assay [2] has as its system Rattus norvegicus. The assay can be described thus: Retention time in Scopolamine induced avoidance test (performed in rat) for antagonistic activity after peroral administration of 5 mg/kg. In kind it is functional, organism-based. Details: dose 5 mg/kg.
The test system of assay [3] is Rattus norvegicus. The assay is described as follows: Acquisition time in Scopolamine induced avoidance test (performed in rat) for antagonistic activity after p.o. administration of 0.31 mg/kg. The assay is classed as functional. Conditions: route oral.
The subject of assay [4] is Mus musculus. The assay can be described thus: Tested for locomotor activity after oral administration of […] for 120 min. The assay is classed as functional.
For assay [5], the system named is Rattus norvegicus. The assay can be described thus: Acquisition time in Scopolamine induced avoidance test (performed in rat) for antagonistic activity after peroral administration of 20 mg/kg. The assay is classed as functional. Conditions: route oral.
The subject of assay [6] is Mus musculus. The assay can be described thus: Tested for locomotor activity after oral administration of 40 mg/kg for 120 min. The assay is classed as functional.
For assay [7], the system named is Rattus norvegicus. The assay is described as follows: Acquisition time in Scopolamine induced avoidance test (performed in rat) for antagonistic activity after peroral administration of 1.25 mg/kg. The conditions noted are these: route oral. The assay is classed as functional.
For assay [8], the system named is Rattus norvegicus. The assay is described as follows: Retention time in Scopolamine induced avoidance test (performed in rat) for antagonistic activity after peroral administration of 80 mg/kg. The assay is classed as functional, organism-based. Details: dose 80 mg/kg.
Assay [9] deals with Rattus norvegicus. The assay can be described thus: Retention time in Scopolamine induced avoidance test (performed in rat) for antagonistic activity after p.o. administration of 0.31 mg/kg. In kind it is functional, organism-based. Details: dose 0.31 mg/kg.
In assay [10] the test system is Rattus norvegicus. The assay can be described thus: Acquisition time in Scopolamine induced avoidance test (performed in rat) for antagonistic activity after peroral administration of 80 mg/kg. Conditions: route oral. In kind it is functional.
The test system of assay [11] is Rattus norvegicus. The assay can be described thus: Retention time in Scopolamine induced avoidance test (performed in rat) for antagonistic activity after peroral administration of 1.25 mg/kg. The assay is classed as functional, organism-based. Details: dose 1.25 mg/kg.
The subject of assay [12] is Mus musculus. The assay is described as follows: Tested for locomotor activity after oral administration of 10 mg/kg for 120 min. The assay is classed as functional.
Assay [13] relates to Mus musculus. The assay is described as follows: Acquisition time in (R)-PIA) induced avoidance test (performed in mice) for antagonistic activity after peroral administration of 0.02 mg/kg. The conditions noted are these: route oral.
In assay [14] the test system is Mus musculus. The assay can be described thus: Retention time in (R)-PIA) induced avoidance test (performed in mice) for antagonistic activity after peroral administration of 0.02 mg/kg.
The test system of assay [15] is Mus musculus. The assay is described as follows: Retention time in (R)-PIA) induced avoidance test (performed in mice) for antagonistic activity after peroral administration of 0.31 mg/kg. In kind it is functional, organism-based. Details: dose 0.31 mg/kg.
The subject of assay [16] is Mus musculus. The assay can be described thus: Acquisition time in (R)-PIA) induced avoidance test (performed in mice) for antagonistic activity after peroral administration of 5 mg/kg. In kind it is functional. Conditions: route oral.
In assay [17] the target is Adenosine A2 receptor (Homo sapiens, UniProt P29275+P29274). The assay can be described thus: Binding affinity towards Adenosine A2 receptor of human platelets with [125I]-N6-aminobenzyladenosine.
For assay [18], the target named is T1, Adenosine receptor A1 (Bos taurus) (UniProt P28190).
T1 sequence (whole entry): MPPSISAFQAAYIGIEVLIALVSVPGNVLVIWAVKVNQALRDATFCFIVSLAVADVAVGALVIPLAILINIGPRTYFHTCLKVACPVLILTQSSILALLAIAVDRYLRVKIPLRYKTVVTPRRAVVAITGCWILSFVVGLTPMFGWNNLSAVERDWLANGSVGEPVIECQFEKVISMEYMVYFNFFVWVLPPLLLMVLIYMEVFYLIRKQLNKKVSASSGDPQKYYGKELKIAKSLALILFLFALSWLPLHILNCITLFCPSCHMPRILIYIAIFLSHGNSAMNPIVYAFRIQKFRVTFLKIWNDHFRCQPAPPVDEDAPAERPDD
The assay is described as follows: Binding affinity for Adenosine A1 receptor of bovine brain at 10e-5 M with [125I]-N6-aminobenzyladenosine.

For assay [19], the system named is Mus musculus. The assay is described as follows: Acquisition time in (R)-PIA) induced avoidance test (performed in mice) for antagonistic activity after peroral administration of 20 mg/kg. In kind it is functional. The conditions noted are these: route oral.
Assay [20] concerns Mus musculus. The assay can be described thus: Acquisition time in (R)-PIA) induced avoidance test (performed in mice) for antagonistic activity after p.o. administration of 1.25 mg/kg. Conditions: route oral. The assay is classed as functional.
Assay [21] relates to Mus musculus. The assay can be described thus: Acquisition time in (R)-PIA) induced avoidance test (performed in mice) for antagonistic activity after p.o. administration of 0.31 mg/kg. In kind it is functional. The conditions noted are these: route oral.
Assay [22] has as its system Mus musculus. The assay is described as follows: Retention time in (R)-PIA) induced avoidance test (performed in mice) for antagonistic activity after p.o. administration of 1.25 mg/kg. In kind it is functional, organism-based. Also noted: dose 1.25 mg/kg.
In assay [23] the test system is Rattus norvegicus. The assay is described as follows: Retention time in Scopolamine induced avoidance test (performed in rat) for antagonistic activity after peroral administration of 20 mg/kg. The assay is classed as functional, organism-based. Details: dose 20 mg/kg.
Assay [24] deals with Rattus norvegicus. The assay can be described thus: Retention time in Scopolamine induced avoidance test (performed in rat) for antagonistic activity after p.o. administration of 0.08 mg/kg. Details: dose 0.08 mg/kg. In kind it is functional, organism-based.
Assay [25] concerns Rattus norvegicus. The assay can be described thus: Acquisition time in Scopolamine induced avoidance test (performed in rat) for antagonistic activity after p.o. administration of 0.08 mg/kg. In kind it is functional. The conditions noted are these: route oral.
Assay [26] relates to Mus musculus. The assay can be described thus: Retention time in (R)-PIA) induced avoidance test (performed in mice) for antagonistic activity after peroral administration of 20 mg/kg. In kind it is functional, organism-based. Also noted: dose 20 mg/kg.
The subject of assay [27] is Mus musculus. The assay is described as follows: Retention time in (R)-PIA) induced avoidance test (performed in mice) for antagonistic activity after peroral administration of 5 mg/kg. The assay is classed as functional, organism-based. Also noted: dose 5 mg/kg.
In assay [28] the test system is Mus musculus. The assay can be described thus: Acquisition time in (R)-PIA) induced avoidance test (performed in mice) for antagonistic activity after peroral administration of 0.08 mg/kg. In kind it is functional. The conditions noted are these: route oral.
Assay [29] relates to Mus musculus. The assay can be described thus: Retention time in (R)-PIA) induced avoidance test (performed in mice) for antagonistic activity after peroral administration of 0.08 mg/kg. In kind it is functional, organism-based. Details: dose 0.08 mg/kg.
The subject of assay [30] is Rattus norvegicus. The assay can be described thus: Retention time in Scopolamine induced avoidance test (performed in […]) for antagonistic activity after peroral administration of 5 mg/kg. The assay is classed as functional, organism-based. Also noted: dose 5 mg/kg.

Turning to `Cn1c(=O)c2c(ncn2C)n(C)c1=O` [CAFFEINE], the Acquisition time in [1] is 11.5 s; in assay [3], 18.3 s; in assay [5], 33.8 s; in assay [7] it was 14.6 s; in assay [10] it was 29.6 s. Besides, the Retention time in assay [2] worked out at 12.5 s; in assay [8] it was 7.6 s; in assay [9], 14.9 s; in assay [11], 11.9 s. Moreover, the Locomotor activity was found to be 6413 Counts in assay [4], 9693 Counts in assay [6] and 9386 Counts in [12].
As to `CCCn1c(=O)c2nc(C3CCCC3)[nH]c2n(CCc2ccc(NC(C)=O)cc2)c1=O`, the Acquisition time came to 15.9 s in assay [1]; 12.2 s in assay [13]; 27.8 s in assay [16]; 20.5 s in assay [19]; 15.5 s in assay [3]; 18.8 s in assay [20]. Besides, the Acquisition time in [21] came out at 18.9 s; in assay [5], 13.8 s; in assay [7] it was 12.6 s; in [25], 15.4 s; in [28] it was 23.9 s. Moreover, the Retention time in assay [14] was 137 s; in assay [15], 38.7 s; in assay [22] it was 20 s; in [23] it was 116 s; in assay [24] it was 175 s; in assay [26], 32.2 s. Also, the Retention time was determined as 47.5 s in assay [27]; 130 s in [9]; 170 s in assay [11]; 75.4 s in assay [29]; 187 s in assay [30]. Besides, the Ki (usually the equilibrium dissociation constant of an inhibitor or competing ligand from its target) in assay [17] is more than 100 µM. Further, the inhibition (usually how much of the control response was suppressed) in assay [18] was found to be 66%.
